What was measured:
THIK1 (K2P13.1) [1] = molecular target: T1, THIK1 (K2P13.1) (Homo sapiens, UniProt Q9HB14, R92A); experiment: TEVC electrophysiology dose–response, activation; format: cell-based
T1 sequence (Q9HB14 1-408 R92A): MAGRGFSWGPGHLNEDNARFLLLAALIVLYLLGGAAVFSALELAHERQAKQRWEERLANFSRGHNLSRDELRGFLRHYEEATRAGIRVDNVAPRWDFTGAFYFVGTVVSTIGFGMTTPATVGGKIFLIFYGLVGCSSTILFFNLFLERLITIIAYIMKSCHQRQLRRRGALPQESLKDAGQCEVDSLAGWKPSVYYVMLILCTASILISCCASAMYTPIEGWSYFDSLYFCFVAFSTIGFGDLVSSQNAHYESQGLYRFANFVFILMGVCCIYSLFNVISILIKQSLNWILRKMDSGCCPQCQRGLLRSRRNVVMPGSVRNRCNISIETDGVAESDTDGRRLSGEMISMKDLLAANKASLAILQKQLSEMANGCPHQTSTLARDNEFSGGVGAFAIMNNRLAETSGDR

THIK1 (K2P13.1) [2] = molecular target: T1, THIK1 (K2P13.1); experiment: TEVC electrophysiology, activation; format: cell-based
cryo-EM structure = molecular target: the molecule itself; experiment: cryo-EM structure

CCCCC/C=C\C/C=C\CCCCCCCC(=O)O [EIC, linoleic acid]
EC50 (THIK1 (K2P13.1) [1]): 700 nM

CC/C=C\C/C=C\C/C=C\C/C=C\C/C=C\CCCC(=O)O [EPA, eicosapentanoic acid]
TEVC electrophysiology, activation (THIK1 (K2P13.1) [2]): α-LNL, eicosapentanoic acid (EPA), dihomo-γ-EIC (DGLA) and oleic acid (OA) also activated R92A

CCCCCCCC/C=C\CCCCCCCC(=O)O [OA, oleic acid]
TEVC electrophysiology, activation (THIK1 (K2P13.1) [2]): α-LNL, eicosapentanoic acid (EPA), dihomo-γ-EIC (DGLA) and oleic acid (OA) also activated R92A

B1: THIK1EM (human K2P13.1 (THIK1) residues 1-350, N59Q, N65Q) (domain or fragment, UniProt Q9HB14 1-350, looked up)
chain: MAGRGFSWGPGHLNEDNARFLLLAALIVLYLLGGAAVFSALELAHERQAKQRWEERLAQFSRGHQLSRDELRGFLRHYEEATRAGIRVDNVRPRWDFTGAFYFVGTVVSTIGFGMTTPATVGGKIFLIFYGLVGCSSTILFFNLFLERLITIIAYIMKSCHQRQLRRRGALPQESLKDAGQCEVDSLAGWKPSVYYVMLILCTASILISCCASAMYTPIEGWSYFDSLYFCFVAFSTIGFGDLVSSQNAHYESQGLYRFANFVFILMGVCCIYSLFNVISILIKQSLNWILRKMDSGCCPQCQRGLLRSRRNVVMPGSVRNRCNISIETDGVAESDTDGRRLSGEMISMK
stoichiometry N (cryo-EM structure): 2

B2: THIK1EM-S136P (domain or fragment, human, UniProt Q9HB14 1-350, looked up)
chain: MAGRGFSWGPGHLNEDNARFLLLAALIVLYLLGGAAVFSALELAHERQAKQRWEERLAQFSRGHQLSRDELRGFLRHYEEATRAGIRVDNVRPRWDFTGAFYFVGTVVSTIGFGMTTPATVGGKIFLIFYGLVGCPSTILFFNLFLERLITIIAYIMKSCHQRQLRRRGALPQESLKDAGQCEVDSLAGWKPSVYYVMLILCTASILISCCASAMYTPIEGWSYFDSLYFCFVAFSTIGFGDLVSSQNAHYESQGLYRFANFVFILMGVCCIYSLFNVISILIKQSLNWILRKMDSGCCPQCQRGLLRSRRNVVMPGSVRNRCNISIETDGVAESDTDGRRLSGEMISMK
binding result (cryo-EM structure): binds
